Where two headings read alike, the source gives them in different places.
Assays:
VEGFR-2 = VEGFR-2 (Homo sapiens, UniProt P35968); assay: VEGF stimulated VEGFR-2 autophosphorylation in whole cells; assay type: cell-based
Excerpt: (§1) The compound of formula 1 is an anti-angiogenic small molecule inhibitor of the tyrosine kinase activity of the vascular endothelial growth factor receptor 2 (VEGFR-2). […] Angiogenesis is necessary for the growth and metastasis of all solid tumors, in that newly formed blood vessels provide nutrients for growing tumors. VEGF is highly overexpressed in a number of tumors. The therapeutic objective of the compound of formula 1 is to inhibit angiogenesis and thereby prevent tumor growth by inhibition of VEGFR-2 tyrosine kinase (TK) activity.

endothelial cell = endothelial cell proliferation; assay type: cell-based
Excerpt: as §1

[1] = set-up: species or system human patients; conditions: in vivo
Procedure: (§2) In a phase 1 study, fifty five (55) patients were treated with the compound of formula 2 as a single agent over a dose range from 35 mg PO (oral dose) for 14 days to 400 mg PO per day continuously. Overall, 25 male and 30 female patients were treated. Patient malignancies include: NSCL (11 patients), renal and urothelial (7 patients), breast (6 patients), colorectal (7 patients), esophageal (3 patients), pancreatic (2 patients), prostate (3 patients), melanoma (2 patients), head and neck (3 patients), soft tissue sarcoma (3 patients), other (8 patients). Forty-two patients had prior chemotherapy. Three patients starting at 300 mg/d had dose reductions to 225 mg/d; 2 reductions were for grade 3 hypertension (HTN), graded by the Common Toxicity Criteria (CTC version 2), occurring between days 15 and 18; 1 additional reduction was as per the patient's request after an episode of hemoptysis in this patient with renal cell carcinoma and lung metastasis. CTC Grade 3 hypertension was initially considered dose limiting at doses of the compound of formula 2 of 300 mg/d, occurring in 2 of 6 patients. Both patients returned to CTC grade 1 or better within 7 days of holding study drug.

clinical = conditions: human, plasma, oral
Excerpt: (§4) With daily (i.e., QD) dosing, the 24-hour AUC value (i.e., the dosing interval AUC value) is a standard measure of systemic exposure to the compound.
(§5) A phase 1/2 study examined the safety and PK of escalating oral QD doses of the hydrochloride salt of the compound of formula 1, viz., the hydrochloride salt of 3-(4-Bromo-2,6-difluoro-benzyloxy)-5-[3-(4-pyrrolidin-1-yl-butyl)-ureido]-isothiazole-4-carboxylic acid amide (i.e., compound of formula 2 shown above), given in combination with paclitaxel (P) (225 mg m^2) and carboplatin (C) (AUC=6) administered in 21 day cycles to chemotherapy naïve patients with PS 0-1 stage IIIb or IV NSCLC with or without stable brain mets and PS 0-1.

[2] = test system: patient malignancies (NSCL, renal and urothelial, breast, colorectal, other); assay: phase 1 single agent study: tumor response; assay type: in vivo, human patients; conditions: of 29 patients with tumor response data
Procedure: as §2
Of the 29 patients for whom tumor response data is available, 9 patients have stable disease beyond 2 cycles (more than 8 weeks) and 2 patients had stable disease beyond 4 cycles (more than 16 weeks).

[3] = phase 1 single agent study: pharmacokinetic analysis; assay type: in vivo, human patients; conditions: for AUC: 250 mg
Procedure: A preliminary pharmacokinetic analysis has been performed on the compound of formula 2 concentration data from the patients in the Phase 1 study. In the higher dose cohorts in that study, blood specimens for pharmacokinetics were collected on Day 1 and 15 of Cycle 1 at the following times: just prior to dosing and at 0.5, 1, 2, 4, 6, 8, 12, 16, and 24 hours post-dose. Blood specimens for pharmacokinetics were also collected prior to and 2 hours after dosing on Days 3, 5, and 8 of Cycle 1. […] The 1% value of the cumulative distribution of the data is 2000 ng·hr/mL and the 99% value is 25000 ng·hr/mL. […] For instance, the 99% value for a dose of 300 mg is predicted to be 25000 ng·hr/mL times 1.2 (300 divided by 250) which equals 30000 ng·hr/mL. The 1% value for a dose of 125 mg is predicted to be 2000 ng·hr/mL times 0.5 (125 divided by 250) which equals 1000 ng·hr/mL. Similar calculations provide predictions of the 1% (lower) and 99% (upper) values of the cumulative distribution of 24-hour AUC values for doses of 150 mg, 180 mg, 260 mg, and 280 mg.

stage IIIb or IV NSCLC = assay: phase 1/2 study with paclitaxel and carboplatin: anti-tumor activity; assay type: in vivo, human patients; conditions: 24 patients evaluable for response, with P/C
Procedure: (§3) Anti-tumor activity was also assessed.

[4] = hygroscopicity of the salt; assay type: physicochemical; conditions: at 90% relative humidity at ambient temperature
Procedure: The mixture was then shaken gently with heating at 50° C. for 3 hours and at ambient temperature for 3 days. The solid was filtered, dried under high vacuum to afford a white solid (468 mg, 0.823 mmol, 82%). Melting point 230° C. (DSC). Hygroscopicity: 1% (by weight)) at 90% relative humidity at ambient temperature (RH). Characteristic X-ray powder diffraction peaks (2-theta, [% relative intensity]): 8.623 [90.7], 12.121 [38.9], 17.298 [95.2], 23.397 [44.7], 23.944 [51.7], 24.119 [62.7], 24.873 [55.7], 25.948 [100], and 28.821 [39.6].

[5] = phase 1/2 study with paclitaxel and carboplatin: PK; conditions: doses ≧150 mg QD
Excerpt: as §4, §5

[6] = phase 1/2 study with paclitaxel and carboplatin: safety; assay type: in vivo, human patients
Procedure: as §3

Sequence of VEGFR-2 (P35968 20-1356): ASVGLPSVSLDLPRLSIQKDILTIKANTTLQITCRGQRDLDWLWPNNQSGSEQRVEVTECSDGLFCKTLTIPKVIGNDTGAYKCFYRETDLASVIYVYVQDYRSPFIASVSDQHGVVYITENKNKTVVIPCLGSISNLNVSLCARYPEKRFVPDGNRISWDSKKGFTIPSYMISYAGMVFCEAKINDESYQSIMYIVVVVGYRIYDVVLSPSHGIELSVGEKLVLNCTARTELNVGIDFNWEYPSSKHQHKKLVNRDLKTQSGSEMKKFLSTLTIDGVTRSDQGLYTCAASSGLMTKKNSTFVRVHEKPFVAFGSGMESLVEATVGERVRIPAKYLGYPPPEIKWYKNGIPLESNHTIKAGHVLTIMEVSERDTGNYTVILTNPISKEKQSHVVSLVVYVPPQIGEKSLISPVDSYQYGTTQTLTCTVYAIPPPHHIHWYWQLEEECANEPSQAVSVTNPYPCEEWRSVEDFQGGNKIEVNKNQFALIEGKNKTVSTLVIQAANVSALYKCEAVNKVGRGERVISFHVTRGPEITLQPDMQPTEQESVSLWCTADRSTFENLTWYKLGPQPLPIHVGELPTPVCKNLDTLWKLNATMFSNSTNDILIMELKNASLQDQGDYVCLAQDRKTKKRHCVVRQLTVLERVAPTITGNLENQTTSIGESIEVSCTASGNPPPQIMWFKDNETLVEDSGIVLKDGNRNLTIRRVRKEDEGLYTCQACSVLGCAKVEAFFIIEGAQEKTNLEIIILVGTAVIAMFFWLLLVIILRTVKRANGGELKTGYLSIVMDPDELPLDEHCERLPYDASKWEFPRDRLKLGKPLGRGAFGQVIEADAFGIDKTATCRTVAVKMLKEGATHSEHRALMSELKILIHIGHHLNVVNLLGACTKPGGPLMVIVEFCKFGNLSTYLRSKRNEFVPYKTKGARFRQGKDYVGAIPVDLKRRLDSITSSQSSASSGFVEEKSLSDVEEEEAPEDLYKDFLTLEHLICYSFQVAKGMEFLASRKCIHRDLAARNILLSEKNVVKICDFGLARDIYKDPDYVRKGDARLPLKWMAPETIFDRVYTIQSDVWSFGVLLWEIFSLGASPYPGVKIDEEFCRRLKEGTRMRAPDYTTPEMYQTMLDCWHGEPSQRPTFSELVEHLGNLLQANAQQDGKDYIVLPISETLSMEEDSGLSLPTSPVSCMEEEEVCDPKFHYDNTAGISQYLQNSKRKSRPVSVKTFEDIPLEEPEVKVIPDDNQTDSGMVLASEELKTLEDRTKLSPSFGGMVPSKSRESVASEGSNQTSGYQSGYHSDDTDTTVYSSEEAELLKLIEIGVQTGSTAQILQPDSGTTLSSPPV

Question: For NC(=O)c1c(OCc2c(F)cc(Br)cc2F)nsc1NC(=O)NCCCCN1CCCC1 [compound of formula 1], which “inhibition of VEGF stimulated VEGFR-2 autophosphorylation” value (VEGFR-2) is on record?
Answer: Its value is “inhibits VEGF stimulated VEGFR-2 autophosphorylation in whole cells”.

Question: And the “inhibition of endothelial cell proliferation” value (endothelial cell)?
Answer: Its value is “inhibits endothelial cell proliferation”.

Question: Which results are given for Cl.NC(=O)c1c(OCc2c(F)cc(Br)cc2F)nsc1NC(=O)NCCCCN1CCCC1 [compound of formula 2]?
Answer: CTC Grade 3 hypertension (initially considered dose limiting) ([1]; both, human): 2 of 6; dermatologic events reported by more than one patient ([1]; both, human): grade 2 venostasis rash, which occurred in cycle 2, and grade 1 pallor and shingles; events in patient dose reduced from 400 mg to 350 mg ([1]; both, human): grade 3 fatigue; patients with dose limiting toxicities ([1]; both, human): None of the 4; patients with dose limiting toxicity ([1]; both, human): 1 of 10; recommended Phase 2 single agent dose ([1]; both, human): 250 mg; reports of grade 3 diarrhea ([1]; both, human): 3 reports; maximum administered dose ([1]; both, human, po): 400 mg; events in patient further dose reduced to 300 mg [1]: severe renal hemorrhage, alveolar hemorrhage and gastrointestinal hemorrhage; other gastrointestinal adverse events occurring in 2 or more patients [1]: nausea, taste disturbance, anorexia and mouth dryness; half-life (clinical): ~32 h; patients with stable disease beyond 2 cycles (more than 8 weeks) [2]: 9 patients; patients with stable disease beyond 4 cycles (more than 16 weeks) [2]: 2 patients; drug concentrations versus predicted efficacious concentrations ([3]; 250 mg daily dose): consistently above the lowest predicted human efficacious concentrations; 24-hour AUC, predicted 1% value of the cumulative distribution ([3]; dose of 125 mg, assuming dose proportionality): 1000 ng·h/mL; 24-hour AUC, predicted 99% value of the cumulative distribution ([3]; dose of 300 mg, assuming dose proportionality): 30000 ng·h/mL; AUC ([3]; human, plasma, oral, 250 mg QD, 19 patients, log-normal distribution, read-out: 24-hour AUC, geometric mean): 7260 ng·h/mL; AUC ([3]; human, plasma, oral, 250 mg QD, 19 patients, read-out: 24-hour AUC values, range): 2880 to 18700 ng·h/mL; AUC ([3]; human, plasma, oral, 250 mg QD, 19 patients, read-out: 24-hour AUC, 1% value of the cumulative distribution): 2000 ng·h/mL; AUC ([3]; human, plasma, oral, 250 mg QD, 19 patients, read-out: 24-hour AUC, 99% value of the cumulative distribution): 25000 ng·h/mL; Cmax ([3]; human, plasma, oral, 250 mg QD, 19 patients, standard deviation 240 ng/mL, read-out: mean Cmax (maximum observed plasma concentration)): 457 ng/mL; objective response rate (stage IIIb or IV NSCLC): 20%; progressive disease rate (stage IIIb or IV NSCLC): 33%; Hygroscopicity [4]: 1 % (by weight); plasma concentrations achieved [5]: within the range associated with anti-angiogenesis in preclinical models; most common treatment emergent adverse events ([6]; in vivo): diarrhea, fatigue, nausea, neuropathy, emesis, alopecia, dyspnea and arthralgia/myalgia; safety of combination with standard doses of P/C ([6]; in vivo, po): can be safely combined with standard doses of P/C; maximum tolerable dose ([6]; oral QD with paclitaxel 225 mg/m2 and carboplatin AUC=6, 21 day cycles, NSCLC patients): 200 mg/day

— patent US20050234115A1, “Dosage forms and methods of treatment using VEGFR inhibitors” (Pfizer Inc., priority 2004, published 2005)
